Laboratory results published in patent publication US12435044B2, “Pyridazinone herbicides and pyridazinone intermediates used to prepare a herbicide” (FMC Corporation, priority 2018, dated 2025).

What was measured:
Assay type in all cases: in vivo
[1] = tested on: barnyardgrass (ECHCG; Echinochloa crus-galli); assay: Test H postemergence, mixtures of Cpd. No. 20 with atrazine or glyphosate
Description: (§1) This test evaluated the effect of mixtures of Cpd. No. 20 with atrazine or glyphosate on several plant species. Seeds of plant species selected from corn (ZEAMD; Zea mays, cv. ‘Pioneer 1184’), soybean (GLXMA; Glycine max, cv. Pioneer 35T58), giant foxtail (SETFA; Setaria faberi), Surinamgrass (BRADC; Brachiaria decumbens), fall panicum (PANDI; Panicum dichotomiflorum), velvetleaf (ABUTH; Abutilon threophrasti), mare's tail (ERICA; Conyza canadensis), barnyardgrass (ECHCG; Echinochloa crus-galli), large crabgrass (DIGSA; Digitaria sanguinalis), palmer amaranth (AMAPA; Amaranthus palmeri), common waterhemp (AMATU; Amaranthus rudis), E. black nightshade (SOLPT; Solanum ptycanthum), and common ragweed (AMBEL; Ambrosia artemisiifolia) were planted in pots containing Redi-Earth® planting medium (Scotts Company, 14111 Scottslawn Road, Marysville, Ohio 43041) comprising spaghnum peat moss, vermiculite, wetting agent and starter nutrients and treated postemergence using test chemicals formulated in a non-phytotoxic solvent mixture which included a surfactant. Plants ranged in height from 2 to 10 cm and were in the one- to two-leaf stage for the postemergence treatment. Treated plants and untreated controls were maintained in a greenhouse for approximately 14 d, after which time all treated plants were compared to untreated controls and visually evaluated for injury. Plant response ratings, summarized in Tables H1 & H2, are based on a 0 to 100 scale where 0 is no effect and 100 is complete control. A dash (-) response means no test result. Test results are presented as a mean of 4 reps.

[2] = tested on: large crabgrass (DIGSA; Digitaria sanguinalis); assay: as above
Description: as §1

[3] = tested on: velvetleaf (ABUTH; Abutilon threophrasti); assay: as above
Description: as §1

[4] = tested on: mare's tail (ERICA; Conyza canadensis); assay: as above
Description: as §1

[5] = tested on: corn (ZEAMD; Zea mays, cv. ‘Pioneer 1184’); assay: as above
Description: as §1

[6] = tested on: fall panicum (PANDI; Panicum dichotomiflorum); assay: as above
Description: as §1

[7] = tested on: common waterhemp (AMATU; Amaranthus rudis); assay: as above
Description: as §1

[8] = tested on: Surinamgrass (BRADC; Brachiaria decumbens); assay: as above
Description: as §1

[9] = tested on: palmer amaranth (AMAPA; Amaranthus palmeri); assay: as above
Description: as §1

[10] = tested on: soybean (GLXMA; Glycine max, cv. Pioneer 35T58); assay: as above
Description: as §1

[11] = tested on: E. black nightshade (SOLPT; Solanum ptycanthum); assay: as above
Description: as §1

[12] = tested on: common ragweed (AMBEL; Ambrosia artemisiifolia); assay: as above
Description: as §1

[13] = tested on: giant foxtail (SETFA; Setaria faberi); assay: as above
Description: as §1

[14] = tested on: winter wheat (TRZAW; Triticum aetivum, cv. Arezzo); assay: Test of Tables L1 to L3, postemergence, mixtures of Cpd. No. 20 with benoxacor, isoxadifen-ethyl, or cloquintocet-mexyl; details: 31 g a.i./ha
Description: (§2) This test evaluated the effect of mixtures of Cpd. No. 20 with benoxacor, isoxadifen-ethyl, or cloquintocet-mexyl on several plant species. Seeds of plant species selected from corn (ZEAMD; Zea mays, cv. ‘Pioneer 1184’), soybean (GLXMA; Glycine max, cv. Pioneer 35T58), winter wheat (TRZAW; Triticum aetivum, cv. Arezzo), rice (ORYSS; Oryza sativa, cv. M202), and giant foxtail (SETFA; Setaria faberi) were planted in pots containing Redi-Earth® planting medium (Scotts Company, 14111 Scottslawn Road, Marysville, Ohio 43041) comprising spaghnum peat moss, vermiculite, wetting agent and starter nutrients and treated postemergence using test chemicals formulated in a non-phytotoxic solvent mixture which included a surfactant. Plants ranged in height from 7 to 10 cm and were in the one- to two-leaf stage for the postemergence treatment. Treated plants and untreated controls were maintained in a greenhouse for approximately 14 d, after which time all treated plants were compared to untreated controls and visually evaluated for injury. Plant response ratings, summarized in Tables L1 to L3, are based on a 0 to 100 scale where 0 is no effect and 100 is complete control. A dash (-) response means no test result. Test results are presented as a mean of 4 reps.

[15] = tested on: corn (ZEAMD; Zea mays, cv. ‘Pioneer 1184’); assay: as above; details: 31 g a.i./ha
Description: as §2

[16] = tested on: soybean (GLXMA; Glycine max, cv. Pioneer 35T58); assay: as above; details: 31 g a.i./ha
Description: as §2

[17] = tested on: rice (ORYSS; Oryza sativa, cv. M202); assay: as above; details: 31 g a.i./ha
Description: as §2

[18] = tested on: giant foxtail (SETFA; Setaria faberi); assay: as above; details: 31 g a.i./ha
Description: as §2

CCNc1nc(Cl)nc(NC(C)C)n1 [Atrazine, atrazine]
Observed result (plant response rating), ECHCG ([1]; applied alone at 125 g a.i./ha): 96 | Observed result (plant response rating), ECHCG ([1]; applied alone at 250 g a.i./ha): 100 | Observed result (plant response rating), DIGSA ([2]; applied alone at 125 g a.i./ha): 0 | Observed result (plant response rating), DIGSA ([2]; applied alone at 250 g a.i./ha): 0 | Observed result (plant response rating), ABUTH ([3]; applied alone at 125 g a.i./ha): 0 | Observed result (plant response rating), ABUTH ([3]; applied alone at 250 g a.i./ha): 10 | Observed result (plant response rating), ERICA ([4]; applied alone at 125 g a.i./ha): 23 | Observed result (plant response rating), ERICA ([4]; applied alone at 250 g a.i./ha): 83 | Observed result (plant response rating), ZEAMD ([5]; applied alone at 125 g a.i./ha): 0 | Observed result (plant response rating), ZEAMD ([5]; applied alone at 250 g a.i./ha): 0 | Observed result (plant response rating), PANDI ([6]; applied alone at 125 g a.i./ha): 0 | Observed result (plant response rating), PANDI ([6]; applied alone at 250 g a.i./ha): 0 | Observed result (plant response rating), AMATU ([7]; applied alone at 125 g a.i./ha): 30 | Observed result (plant response rating), AMATU ([7]; applied alone at 250 g a.i./ha): 39 | Observed result (plant response rating), BRADC ([8]; applied alone at 125 g a.i./ha): 0 | Observed result (plant response rating), BRADC ([8]; applied alone at 250 g a.i./ha): 0 | Observed result (plant response rating), AMAPA ([9]; applied alone at 125 g a.i./ha): 76 | Observed result (plant response rating), AMAPA ([9]; applied alone at 250 g a.i./ha): 74 | Observed result (plant response rating), GLXMA ([10]; applied alone at 125 g a.i./ha): 15 | Observed result (plant response rating), GLXMA ([10]; applied alone at 250 g a.i./ha): 33 | Observed result (plant response rating), SOLPT ([11]; applied alone at 125 g a.i./ha): 28 | Observed result (plant response rating), SOLPT ([11]; applied alone at 250 g a.i./ha): 64 | Observed result (plant response rating), AMBEL ([12]; applied alone at 125 g a.i./ha): 48 | Observed result (plant response rating), AMBEL ([12]; applied alone at 250 g a.i./ha): 80 | Observed result (plant response rating), SETFA ([13]; applied alone at 125 g a.i./ha): 0 | Observed result (plant response rating), SETFA ([13]; applied alone at 250 g a.i./ha): 0

CC1COc2ccccc2N1C(=O)C(Cl)Cl (stereo not shown) [Benoxacor, benoxacor, reference compound]
TRZAW plant response rating, 0 to 100 scale [14]: 0 | ZEAMD plant response rating, 0 to 100 scale [15]: 0 | GLXMA plant response rating, 0 to 100 scale [16]: 0 | ORYSS plant response rating, 0 to 100 scale [17]: 0 | SETFA plant response rating, 0 to 100 scale [18]: 0
